Test results from patent US8987195B2 (priority 2012, dated 2015).
pEC50, pIC50: −log10 of the molar value. Like-named read-outs stand apart in the source and are kept apart here.

Assays:
[1] = target: HCV NS3/4A protease genotype 1b (Hepatitis C virus genotype 1b, UniProt P26663); assay: HCV NS3/4A protease time-resolved fluorescence (TRF) assay, Ki against genotype 1b; format: biochemical; details: for IC50: IC50 [gt-1b] (nM), NS3/4A genotype 1b, enzyme 0.2 nM; for pIC50: IC50 [gt-1b], NS3/4A protease TRF assay, genotype 1b enzyme 0.2 nM
How it was run: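 Enzyme 0.2 nM 1b / 0.4 nM A156T / 0.025 nM 3a; 30 min preinc. w/ cpd; 25 nM TRF peptide; 2.5 h RT; ex 340/em 615 time-delayed; 4-param IC50 → Ki = IC50/(1+[S]/KM).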

[2] = system: HCV genotype 1b replicon; assay: HCV replicon assay, genotype 1b replicon EC50; format: cell-based, Hepatitis C virus; details: read-out: EC50 [gt-1b]
How it was run: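 Cells harbouring a stable replicon are grown under G418 selection, then plated with test compound in G418-free medium for 24-48 hours. After washing and lysis, RNA or luciferase signal is measured and expressed as percent of DMSO control to give EC50.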

[3] = Hepatitis C virus, genotype 1b replicon
[4] = Hepatitis C virus, HCV replicon, genotype 1b

Structure (SMILES): CCOC(=O)N[C@H]1CCCCC/C=C\[C@@H]2C[C@@]2(C(=O)NS(=O)(=O)C2(C)CC2)NC(=O)[C@@H]2C[C@]3(CCc4c(c(C)nc5ccccc45)O3)CN2C1=O [Example 115, ethyl [(2R,6S,12Z,13aS,14aR,16aS)-5′-methyl-14a-{[(1-methylcyclopropyl)sulfonyl]carbamoyl}-5,16-dioxo-1,1′,2′,5,6,7,8,9,10,11,13a,14,14a,15,16,16a-hexadecahydrospiro[cyclopropa[e]pyrrolo[1,2-a][1,4]diazacyclopentadecine-2,3′-pyrano[2,3-c]quinolin]-6-yl]carbamate]
- IC50 [1]: 0.017 nM
- pEC50 [2, 3]: 8.16

Structure (SMILES): COc1ccc2nc(C)c3c(c2c1)CC[C@]1(C[C@H]2C(=O)N[C@]4(C(=O)NS(=O)(=O)C5(C)CC5)C[C@H]4/C=C\CCCCC[C@H](NC(=O)OC(C(C)C)C(F)(F)F)C(=O)N2C1)O3 (stereo partly drawn) [Example 407, 1,1,1-trifluoro-3-methylbutan-2-yl [(2R,6S,12Z,13aS,14aR,16aS)-9′-methoxy-5′-methyl-14a-{[(1-methylcyclopropyl)sulfonyl]carbamoyl}-5,16-dioxo-1,1′,2′,5,6,7,8,9,10,11,13a,14,14a,15,16,16a-hexadecahydrospiro[cyclopropa[e]pyrrolo[1,2-a][1,4]diazacyclopentadecine-2,3′-pyrano[2,3-c]quinolin]-6-yl]carbamate]
- pIC50 ([1]; K+ salt): 10.72
- pEC50 ([2]; Hepatitis C virus, HCV replicon, genotype 1b, K+ salt): 8.82

Structure (SMILES): Cc1nc2c(C(F)(F)F)cccc2c2c1O[C@]1(CC2)C[C@H]2C(=O)N[C@]3(C(=O)NS(=O)(=O)C4CC4)C[C@H]3/C=C\CCCCC[C@H](NC(=O)OC(C)(C)C)C(=O)N2C1 [Example 95, tert-butyl [(2R,6S,12Z,13aS,14aR,16aS)-14a-[(cyclopropylsulfonyl)carbamoyl]-5′-methyl-5,16-dioxo-7′-(trifluoromethyl)-1,1′,2′,5,6,7,8,9,10,11,13a,14,14a,15,16,16a-hexadecahydrospiro[cyclopropa[e]pyrrolo[1,2-a][1,4]diazacyclopentadecine-2,3′-pyrano[2,3-c]quinolin]-6-yl]carbamate]
- IC50 [1]: 0.993 nM
- pEC50 [2, 3]: 8.28

Structure (SMILES): COc1ccc2nc(C3CC3)c3c(c2c1)CC[C@]1(C[C@H]2C(=O)N[C@]4(C(=O)NS(=O)(=O)C5(C)CC5)C[C@H]4/C=C\CCCCC[C@H](NC(=O)NC4CCCC4)C(=O)N2C1)O3 [Example 93, (2R,6S,12Z,13aS,14aR,16aS)-6-[(cyclopentylcarbamoyl)amino]-5′-cyclopropyl-9′-methoxy-N-[(1-methylcyclopropyl)sulfonyl]-5,16-dioxo-1,1′,2′,6,7,8,9,10,11,13a,14,15,16,16a-tetradecahydrospiro[cyclopropa[e]pyrrolo[1,2-a][1,4]diazacyclopentadecine-2,3′-pyrano[2,3-c]quinoline]-14a(5H)-carboxamide]
- IC50 [1]: 0.007 nM
- pEC50 [2, 3]: 8.47

Structure (SMILES): Cc1nc2c(C(F)(F)F)cccc2c2c1O[C@]1(CC2)C[C@H]2C(=O)N[C@]3(C(=O)NS(=O)(=O)C4(C)CC4)C[C@H]3/C=C\CCCCC[C@H](NC(=O)OC(C)C)C(=O)N2C1 [Example 114, propan-2-yl [(2R,6S,12Z,13aS,14aR,16aS)-5′-methyl-14a-{[(1-methylcyclopropyl)sulfonyl]carbamoyl}-5,16-dioxo-7′-(trifluoromethyl)-1,1′,2′,5,6,7,8,9,10,11,13a,14,14a,15,16,16a-hexadecahydrospiro[cyclopropa[e]pyrrolo[1,2-a][1,4]diazacyclopentadecine-2,3′-pyrano[2,3-c]quinolin]-6-yl]carbamate]
- IC50 [1]: 0.308 nM
- pEC50 [2, 3]: 8.45

Structure (SMILES): Cc1nc2ccc(OC(F)F)cc2c2c1O[C@]1(CC2)C[C@H]2C(=O)N[C@]3(C(=O)NS(=O)(=O)C4(C)CC4)C[C@H]3/C=C\CCCCC[C@H](NC(=O)OCC(C)(C)C)C(=O)N2C1 [Example 280, 2,2-dimethylpropyl [(2R,6S,12Z,13aS,14aR,16aS)-9′-(difluoromethoxy)-5′-methyl-14a-{[(1-methylcyclopropyl)sulfonyl]carbamoyl}-5,16-dioxo-1,1′,2′,5,6,7,8,9,10,11,13a,14,14a,15,16,16a-hexadecahydrospiro[cyclopropa[e]pyrrolo[1,2-a][1,4]diazacyclopentadecine-2,3′-pyrano[2,3-c]quinolin]-6-yl]carbamate]
- IC50 [1]: 0.005 nM
- pEC50 [2, 3]: 8.55

Structure (SMILES): CC1(OC(=O)N[C@H]2CCCCC/C=C\[C@@H]3C[C@@]3(C(=O)NS(=O)(=O)C3(C)CC3)NC(=O)[C@@H]3C[C@]4(CCc5c(c(C6CC6)nc6c(F)cccc56)O4)CN3C2=O)CC1 [Example 168, 1-methylcyclopropyl [(2R,6S,12Z,13aS,14aR,16aS)-5′-cyclopropyl-7′-fluoro-14a-{[(1-methylcyclopropyl)sulfonyl]carbamoyl}-5,16-dioxo-1,1′,2′,5,6,7,8,9,10,11,13a,14,14a,15,16,16a-hexadecahydrospiro[cyclopropa[e]pyrrolo[1,2-a][1,4]diazacyclopentadecine-2,3′-pyrano[2,3-c]quinolin]-6-yl]carbamate]
- IC50 [1]: 0.013 nM
- pEC50 [2, 3]: 8.43

Structure (SMILES): Cc1nc2ccccc2c2c1O[C@]1(CC2)C[C@H]2C(=O)N[C@]3(C(=O)NS(=O)(=O)C4(C)CC4)C[C@H]3/C=C\CCCCC[C@H](NC(=O)OC(CN(C)S(C)(=O)=O)C(C)(C)C)C(=O)N2C1 (single isomer, unassigned) [Example 262]
- IC50 [1]: 0.037 nM
- pEC50 ([2]; genotype 1b replicon): 7.41

Structure (SMILES): COc1ccc2nc(C3CC3)c3c(c2c1)[C@H](F)C[C@]1(C[C@H]2C(=O)N[C@]4(C(=O)NS(=O)(=O)C5(C)CC5)C[C@H]4/C=C\CCCCC[C@H](NC(=O)OC(C)(C)C)C(=O)N2C1)O3 [Example 428, tert-butyl [(l′R,2S,6S,12Z,13aS,14aR,16aS)-5′-cyclopropyl-1′-fluoro-9′-methoxy-14a-{[(1-methylcyclopropyl)sulfonyl]carbamoyl}-5,16-dioxo-1,1′,2′,5,6,7,8,9,10,11,13a,14,14a,15,16,16a-hexadecahydrospiro[cyclopropa[e]pyrrolo[1,2-a][1,4]diazacyclopentadecine-2,3′-pyrano[2,3-c]quinolin]-6-yl]carbamate]
- pIC50 [1]: 10.70
- pEC50 [2, 4]: 8.66

Structure (SMILES): COc1ccc2nc(C)c3c(c2n1)CC[C@]1(C[C@H]2C(=O)N[C@]4(C(=O)NS(=O)(=O)C5(C)CC5)C[C@H]4/C=C\CCCCC[C@H](NC(=O)OCC(C)C)C(=O)N2C1)O3 [Example 362, 2-methylpropyl [(2R,6S,12Z,13aS,14aR,16aS)-2′-methoxy-6′-methyl-14a-{[(1-methylcyclopropyl)sulfonyl]carbamoyl}-5,16-dioxo-1,5,6,7,8,9,9′,10,10′,11,13a,14,14a,15,16,16a-hexadecahydrospiro[cyclopropa[e]pyrrolo[1,2-a][1,4]diazacyclopentadecine-2,8′-pyrano[2,3-c][1,5]naphthyridin]-6-yl]carbamate]
- pIC50 [1]: 11.10
- pEC50 [2, 4]: 8.39

Structure (SMILES): COc1ccc2nc(C(F)F)c3c(c2c1)CC[C@]1(C[C@H]2C(=O)N[C@]4(C(=O)NS(=O)(=O)C5(C)CC5)C[C@H]4/C=C\CCCCC[C@H](NC(=O)OC(C)(C)C)C(=O)N2C1)O3 [Example 10, tert-butyl ((2R,6S,13aS,14aR,16aS,Z)-5′-(difluoromethyl)-9′-methoxy-14a-(((1-methylcyclopropyl)sulfonyl)carbamoyl)-5,16-dioxo-1′,2′,3,5,6,7,8,9,10,11,13a,14,14a,15, 16,16a-hexadecahydro-1H-spiro[cyclopropa[e]pyrrolo[1,2-a][1,4]diazacyclopentadecine-2,3′-pyrano[2,3-c]quinolin]-6-yl)carbamate]
- IC50 ([1]; K+ salt): 0.013 nM
- pEC50 ([2]; Hepatitis C virus, genotype 1b replicon, K+ salt): 8.95
